This is an account of results in patent US5087640A, “Novel cyanoguanidine derivatives” (Kanebo, Ltd., priority 1989, dated 1992).

In data set [1] the test system is taenia caecum smooth muscle. The data set is described as follows: Smooth muscle relaxation (isolated guinea pig taenia caecum, organ bath). It is filed as cell-based, guinia pigs. The conditions noted are these: Cavia porcellus; cumulative addition; papaverine (10^-4 M) relaxation taken as 100%; MOPS-PSS pH 7.4, 37°±1° C.; read-out: ED50 (dose achieving 50% relaxation). The method, then: Male guinia pigs weighing 300-600 g were stunned by blow on the head. Taeniae were isolated from the caecum and cut into length of about 1 cm to prepare a plurality of test specimens. These specimens were suspended in an organ bath filled with MOPS-PSS containing 129.7 mM of NaC1, 5.9 mM of KC1, 2.54 mM of CaC12, 1.19 mM of MgC12, 10.0 mM of 3-(N-morpholino)propanesulfonic acid (MOPS) and 11.1 mM of glucose, pH 7.4. The bathing solution was continuously bubbled with 100% O2 gas and maintained at 37°±1° C. Resting tension of each specimen was adjusted to 1 g and the spontaneous response was recorded isotonically. The specimens were allowed to stabilize before starting the test. Test compound was cumulatively added to the bathing solution. A relaxation induced with papaverine (10^-4 M) was taken as 100% relaxation. The relaxation effect of each test compound was evaluated in terms of a dose achieving 50% relaxation (ED50) determined by the linear regression analysis.

The nature of data set [2]: in vivo. The conditions noted are these: rat, po, fasted male rats, deaths for 7 days, Weil's method. The method, then: Male rats weighing 70-210 g (3-5 rats/group) were fasted overnight and administered orally with the test compound suspended in 5% gum arabic solution. LD50 was calculated from the number of death for 7 days using the Weil's method.
The nature of data set [3]: Hypotensive activity in anesthetized dogs (mean blood pressure). In kind it is in vivo, Mongrel dogs. The conditions noted are these: 30 μg/kg, i.v.; pentobarbital-anesthetized dogs. How it is done:
Mongrel dogs of both sexes, weighing 11-22 kg, were anesthetized with sodium pentobarbital (30 mg/kg, i.v.). Mean blood pressure was measured with a carrier amplifier (Nihon Koden, AP-621G) via a pressure transducer (Nihon Koden, TP-200T) connected to the cannulated left femoral artery. Each test compound was dissolved in 0.9% saline containing 50% (v/v) ethanol and injected into the femoral vein in volumes of 0.1 ml/kg. The hypotensive effects of test compounds were evaluated in terms of the maximum decrease in the mean blood pressure (Δ mmHg) at a dose of 30 μg/kg.

Data set [4] relates to K^+ channel. The experiment in a line: K^+ channel opening activity (^86 Rb^+ efflux from taenia caecum). In kind it is cell-based, guinia pigs. The conditions noted are these: n = 5; efflux just before addition taken as 100%; 37°±1° C. The method, then: In order to ascertain that the smooth muscle relaxation activity is proportional to the K^+ channel opening activity, the compound of Example B-2 was tested for the K^+ channel opening activity in comparison with pinacidil.
^86 Rb^+ efflux was selected as the indication of K^+ channel opening effect because the K^+ channels were considered to be selective also for Rb^+. In a similar manner to the test 1, specimens of taenia caecum were suspended in a test tube filled with MOPS-PSS. The bathing solution was continuously bubbled with 100% O2 gas and maintained at 37°±1° C. After an equilibration period for about 45 minutes, the specimens were loaded with ^86 Rb^+. The efflux from the specimens was measured using a scintillation counter at every 2 minutes interval. The efflux data were expressed in terms of the rate coefficient (the ^86 Rb^+ efflux just before the test compounds were added were taken as 100%). The effective dose (ED15) Producing 15% increase of the rate coefficient by the test compounds were calculated from the linear regression analysis.

A word on the LD50: it is the dose expected to kill half of the subjects tested. The low end stands for a more toxic substance, the high end for a less toxic substance.

As for `CC(C)(C)NC(=Nc1cc(Cl)cc(Cl)c1)NC#N` [Ex. B-1, N-t-butyl-N'-cyano-N"-(3,5-dichlorophenyl)-guanidine], in data set [1], the EC50 was 87 nM. This molecule came in with a 50% lethal dose (LD50) at 168 h in data set [2] greater than 2000 mg/kg.

`CC(C)(C)NC(=Nc1c(Cl)cccc1Cl)NC#N` [Compd. B, N-t-butyl-N'-cyano-N"-(2,6-dichlorophenyl)guanidine, reference compound]: in data set [1], the EC50 was greater than 100000 nM. Still for that read-out and setting: the same measure for `CC(C)C(C)(C)N=C(NC#N)Nc1cc(Cl)cc(Cl)c1` [Ex. B-4, N-cyano-N'-(3,5-dichlorophenyl)-N"-(1,1,2-trimethylpropyl)guanidine]: 58 nM; for `CC(NC(=C[N+](=O)[O-])Nc1ccccc1)C(C)(C)C` (centres unmarked) [Compd. C, 2-nitro-1-anilino-1-(1,2,2-trimethylpropyl)aminoethene, reference compound]: 2700 nM. For the molecule `CCC(C)(CC)N=C(NC#N)Nc1cc(Cl)cc(Cl)c1` [Ex. B-5, N-cyano-N'-(3,5-dichlorophenyl)-N"-(1-ethyl-1-methylpropyl)guanidine], in data set [1], the EC50 worked out at 81 nM. Further, the “maximum decrease in the mean blood pressure, Δ mm Hg ± S.E.” value (“maximum decrease … Δ mm Hg ± S.E.” below) in data set [3] is given as -26.1 ± 1.8 mm Hg. The molecule further came in with an LD50 at 168 h in data set [2] greater than 2000 mg/kg.

For `CC(C)(C)NC(=Nc1cc(Br)cc(Br)c1)NC#N` [Ex. B-9, N-t-butyl-N'-cyano-N"-(3,5-dibromophenyl)guanidine], the EC50 in data set [1] was found to be 21 nM. `CC(C)(C)NC(=Nc1cc(F)cc(F)c1)NC#N` [Ex. B-8, N-t-butyl-N'-cyano-N"-(3,5-difluorophenyl)guanidine]: in data set [1], the EC50 worked out at 180 nM. Same read-out and setting: next, `CCC(C)(C)N=C(NC#N)Nc1cc(Br)cc(Br)c1` [Ex. B-10, N-cyano-N'-(3,5-dibromophenyl)-N"-t-pentylguanidine]: 19 nM. Turning to `CC(N=C(NC#N)Nc1ccncc1)C(C)(C)C.O` (centres unmarked) [Pinacidil, N-cyano-N'-(4-pyridyl)-N"-(1,2,2-trimethylpropyl)guanidine monohydrate, reference compound], the EC50 in data set [1] came out at 2000 nM. The “ED15 (dose producing 15% increase of the ^86 Rb^+ efflux rate coefficient)” value in data set [4] was 24000 nM. Also, the “maximum decrease … Δ mm Hg ± S.E.” value in data set [3] is -11.3 ± 1.1 mm Hg. For the molecule `CC(N=C(NC#N)Nc1cc(Cl)cc(Cl)c1)C(C)(C)C` (centres unmarked) [Ex. B-6, N-cyano-N'-(3,5-dichlorophenyl)-N"-(1,2,2-trimethylpropyl)guanidine], in data set [1], the EC50 was determined as 180 nM.

With `CCCC(C)(C)N=C(NC#N)Nc1cc(Cl)cc(Cl)c1` [Ex. B-3, N-cyano-N'-(3,5-dichlorophenyl)-N"-(1,1-dimethylbutyl)guanidine], the EC50 in data set [1] was determined as 35 nM. Besides, the “maximum decrease … Δ mm Hg ± S.E.” value in data set [3] is given as -22.9 ± 3.2 mm Hg.

`CCC(C)(C)N=C(NC#N)Nc1cc(Cl)cc(Cl)c1` [Ex. B-2, N-cyano-N'-(3,5-dichlorophenyl)-N"-t-pentylguanidine]: the EC50 in data set [1] worked out at 26 nM. In addition, the “ED15 (dose producing 15% increase of the ^86 Rb^+ efflux rate coefficient)” value in data set [4] is 270 nM. The “maximum decrease … Δ mm Hg ± S.E.” value in data set [3] is given as -19.1 ± 4.1 mm Hg. The LD50 at 168 h in data set [2] is greater than 2000 mg/kg. Take `CCC(C)(C)N=C(NC#N)Nc1cc(F)cc(Cl)c1` [Ex. B-12, N-(3-chloro-5-fluorophenyl)-N'-cyano-N"-t-pentylguanidine]: the EC50 in data set [1] turned out to be 54 nM. In the case of `CCC(C)(C)N=C(NC#N)Nc1cc(F)cc(Br)c1` [Ex. B-13, N-(3-bromo-5-fluorophenyl)-N'-cyano-N"-t-pentylguanidine], the EC50 in data set [1] worked out at 25 nM. Also, the “maximum decrease … Δ mm Hg ± S.E.” value in data set [3] is -33.4 ± 0.9 mm Hg. For the same molecule, in data set [2], the LD50 at 168 h was greater than 2000 mg/kg. Regarding `CCC(C)(C)NC(=Nc1ccccc1)NC#N` [Compd. A, N-cyano-N'-t-pentyl-N"-phenylguanidine, reference compound], the EC50 in data set [1] amounted to 1800 nM. `CCC(CC)(CC)N=C(NC#N)Nc1cc(Cl)cc(Cl)c1` [Ex. B-7, N-cyano-N'-(3,5-dichlorophenyl)-N"-(1,1-diethylpropyl)guanidine]: the EC50 in data set [1] came to 180 nM. Regarding `CC(C)(C)NC(=NC#N)Nc1cc(F)cc(Cl)c1` [Ex. B-11, N-t-butyl-N'-(3-chloro-5-fluorophenyl)-N"-cyanoguanidine], the EC50 in data set [1] amounted to 66 nM. Besides, the “maximum decrease … Δ mm Hg ± S.E.” value in data set [3] is on record as -19.2 ± 4.4 mm Hg.
